In US7192974B2, “Hydroxymethyl substituted dihydroisoxazole derivatives useful as antibiotic agents” (AstraZeneca AB, priority 2003, dated 2007):
Converted amounts (≈) assume the structure as drawn. Where two headings read alike, the source gives them in different places. Blank lines part the entries; values can stand above or below the molecule they belong to.

Legend:
[1] = test system: Haemophilus influenzae; assay: MIC, fastidious Gram negative organisms in Mueller-Hinton broth; type: cell-based; details: Mueller-Hinton broth with hemin and NAD, 24 hours, 5×10^4 CFU/well
Method: (§1) The following results were obtained on a standard in-vitro test system. The activity is described in terms of the minimum inhibitory concentration (MIC) determined by the agar-dilution technique with an inoculum size of 10^4 CFU/spot. Typically, compounds are active in the range 0.01 to 256 μg/ml. Streptococci and enterococci were tested on agar supplemented with 5% defibrinated horse blood, an inoculum of 10^4 CPU/spot and an incubation temperature of 37° C. in an atmosphere of 5% carbon dioxide for 48 hours—blood is required for the growth of some of the test organisms. Fastidious Gram negative organisms were tested in Mueller-Hinton broth, supplemented with hemin and NAD, grown aerobically for 24 hours at 37° C., and with an innoculum of 5×10^4 CFU/well.

[2] = test system: Moraxella catarrhalis; assay: as above; type: cell-based; details: Mueller-Hinton broth with hemin and NAD, 24 hours, 5×10^4 CFU/well
Method: as §1

[3] = biological target: T1, MAO-A (Homo sapiens, UniProt P21397); assay: MAO-A in-vitro assay, human liver enzyme expressed in yeast; type: biochemical
T1 construct: made in house; host or cells: yeast
T1 sequence (P21397 1-527): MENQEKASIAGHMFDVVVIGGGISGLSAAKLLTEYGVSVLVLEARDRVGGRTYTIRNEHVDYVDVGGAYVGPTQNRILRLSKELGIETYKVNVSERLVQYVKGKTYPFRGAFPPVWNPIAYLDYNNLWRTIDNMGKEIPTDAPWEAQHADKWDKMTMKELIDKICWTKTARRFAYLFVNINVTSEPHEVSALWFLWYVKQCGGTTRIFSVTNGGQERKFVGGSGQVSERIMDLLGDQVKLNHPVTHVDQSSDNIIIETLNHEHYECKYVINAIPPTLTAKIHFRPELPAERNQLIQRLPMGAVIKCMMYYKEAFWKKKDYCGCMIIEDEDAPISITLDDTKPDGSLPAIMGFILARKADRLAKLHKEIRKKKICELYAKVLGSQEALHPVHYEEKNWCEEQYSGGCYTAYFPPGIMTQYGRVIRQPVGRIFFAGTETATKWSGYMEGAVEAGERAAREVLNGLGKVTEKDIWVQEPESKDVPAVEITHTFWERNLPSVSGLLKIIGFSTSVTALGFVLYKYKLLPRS
Method: The activity of the compounds of the invention against MAO-A was tested using a standard in-vitro assay based on human liver enzyme expressed in yeast as described in Biochem. Biophys. Res. Commun. 1991, 181, 1084–1088.

[4] = test system: Staphylococcus aureus MSQS; assay: MIC by agar-dilution, Staphylococci on agar; type: cell-based; details: MSQS = methicillin sensitive and quinolone sensitive, inoculum 10^4 CFU/spot, 37° C., 24 hours
Method: (§2) The following results were obtained on a standard in-vitro test system. The activity is described in terms of the minimum inhibitory concentration (MIC) determined by the agar-dilution technique with an inoculum size of 10^4 CFU/spot. Typically, compounds are active in the range 0.01 to 256 μg/ml.
(§3) Staphylococci were tested on agar, using an inoculum of 10^4 CFU/spot and an incubation temperature of 37° C. for 24 hours—standard test conditions for the expression of methicillin resistance.

[5] = test system: Staphylococcus aureus MRQR; assay: MIC by agar-dilution, Staphylococci on agar; type: cell-based; details: MRQR = methicillin resistant and quinolone resistant, inoculum 10^4 CFU/spot, 37° C., 24 hours
Method: as §2, §3

[6] = test system: Streptococcus pneumoniae; assay: MIC, Streptococci on agar with 5% defibrinated horse blood; type: cell-based; details: 5% carbon dioxide, 48 hours
Method: as §1

MIC [1]: 4 µg/mL (≈ 9.12 µM)
MIC [2]: 0.5 µg/mL (≈ 1.14 µM)
Ki ([3]; human liver enzyme expressed in yeast, read-out: Ki value (MAO-A)): 20 µM
MIC [4]: 0.25 µg/mL (≈ 0.57 µM)
MIC [5]: 0.5 µg/mL (≈ 1.14 µM)
MIC [6]: 0.02 µg/mL (≈ 0.0456 µM)
Structure (SMILES): O=C1O[C@@H](Cn2ccnn2)CN1c1ccc(-c2ccc(C3=NO[C@H](CO)C3)nc2)c(F)c1 [Example 1, (5R)-3-(3-Fluoro-4-{6-[(5S)-5-(hydroxymethyl)-4,5-dihydroisoxazol-3-yl]pyridin-3-yl}phenyl)-5-(1H-1,2,3-triazol-1-ylmethyl)-1,3-oxazolidin-2-one]

Ki ([3]; read-out: MAO-A Ki): 0.7 µM
Structure (SMILES): O=C1O[C@@H](Cn2ccnn2)CN1c1ccc(-c2ccc(C3=NO[C@@H](CO)C3)nc2)c(F)c1 [Example 2, (5R)-3-(3-Fluoro-4-{6-[(5R)-5-(hydroxymethyl)-4,5-dihydroisoxazol-3-yl]pyridin-3-yl}phenyl)-5-(1H-1,2,3-triazol-1-ylmethyl)-1,3-oxazolidin-2-one]

Ki ([3]; read-out: MAO-A Ki): 9 µM
Structure (SMILES): CC(=O)NC[C@H]1CN(c2ccc(-c3ccc(C4=NO[C@H](CO)C4)nc3)c(F)c2)C(=O)O1 [Example 3, N-{[(5S)-3-(3-Fluoro-4-{6-[(5S)-5-(hydroxymethyl)-4,5-dihydroisoxazol-3-yl]pyridin-3-yl}phenyl)-2-oxo-1,3-oxazolidin-5-yl]methyl}acetamide]

Ki ([3]; read-out: MAO-A Ki): 3 µM
Structure (SMILES): CC(=O)NC[C@H]1CN(c2ccc(-c3ccc(C4=NO[C@@H](CO)C4)nc3)c(F)c2)C(=O)O1 [Example 4, N-{[(5S)-3-(3-Fluoro-4-{6-[(5R)-5-(hydroxymethyl)-4,5-dihydroisoxazol-3-yl]pyridin-3-yl}phenyl)-2-oxo-1,3-oxazolidin-5-yl]methyl}acetamide]
